Assay results as given in patent US6759385B1, “Methods to treat undesirable immune responses” (Regents of the University of Minnesota, priority 1997, dated 2004).

How the values were obtained:
[1] = Distribution in the respiratory tract of solutions administered nasally; format: in vivo, mouse; conditions: 25 μl of 4% solution into nostrils, 10-15 minutes
Protocol: Distribution in the Respiratory Tract of Solutions Administered Nasally. To determine which parts of the mouse respiratory system came in contact with solutions given nasally, a solution of ethidium bromide was employed. Ethidium bromide is absorbed through the mucosal lining of the respiratory tract and fluoresces brightly under U.V. light. Two mice were anesthetized and 25 μl of a 4% ethidium bromide solution in PBS was instilled into the nostrils. Ten-fifteen minutes later the animals were sacrificed by cervical dislocation. Their nasal cavities, larynx, trachea, bronchi and lungs were dissected, washed in PBS and examined under U.V. light for ethidium bromide staining.

[2] = test system: CD4+ cells of MG patients; assay: Response of CD4+ T cells of MG patients to synthetic human AChR peptides; format: cell-based; conditions: irrespective of HLA class II type
Text: Several studies have identified sequences of the human AChR α subunit recognized by T cells in MG patients. To determine whether the CD4^+ cells recognizing those immunodominant and/or universal epitope sequences can drive the synthesis of pathogenic anti-AChR antibodies, and how the ability of the different sequence regions of the AChR to interact with different HLA DR molecules correlates with the presence of universal CD4^+ epitopes, synthetic peptides based on the amino acid sequence of the human α subunit of AChR (Noda et al., Nature, 305, 818 (1983); Schoepfer et al., FEBS Lett., 226, 235 (1981)) were prepared. The peptides were approximately 20 residues long, a length that compares with that of naturally processed class II-restricted epitopes, which are 9-14 residues. […] The peptides overlapped by 5-10 residues to reduce the risk of missing epitopes “broken” between peptides.
The response to individual overlapping synthetic AChR peptides spanning the sequence of each AChR subunit, of unselected blood […], and of CD4^+ T cell lines enriched with AChR-specific cells by culture in vitro with ACHR antigens, was tested. The use of those two cell populations has different advantages and limitations. AChR-specific CD4+ lines have strong, consistent responses to individual peptides that allow a clear-cut assessment of their epitope repertoire. However, they may have an epitope repertoire different from that of the original CD4^+ population due to biased clonal propagation in vitro. Also, denatured forms of the antigen such as synthetic and biosynthetic peptides, which are commonly used for propagation of CD4+ cells specific for rare antigens, may be processed into peptide epitopes different from those obtained from processing of the native antigen in vivo and may expand […] irrelevant for the immune process in vivo. […]

[3] = test system: EMG in B6 mice immunized with TAChR; assay: Subcutaneous tolerization, prevention protocol, EMG symptoms (Example IV); format: in vivo, mouse; conditions: s.c. 10 μg/injection
Protocol: (§1) B6 mice (Jackson Laboratory, Bar Harbor, Me.) were injected s.c. with 100 μl of PBS containing increasing amounts of a pool of the same amount in weight of each of the three epitope peptides Tα150-169, Tα180-200 and Tα360-378 (‘peptide pool’), or 200 μg of Tα150-169 alone, or 100 μl of PBS containing 0.1% Triton X-100 and 10 μg of solubilized TAChR. Two different treatment schedules were used, referred to as prevention and post-priming protocols. In the prevention protocol, the peptides or solubilized TAChR were administered twice per week for 14 weeks, starting 2 weeks before the beginning of the immunization with TAChR. In the post-priming protocol, peptides or solubilized TAChR were administered twice per week for […], starting 8 weeks after the beginning of the TAChR immunization. Control mice received 100 μl of peptide-free PBS, following the same schedules.
(§2) Immunization 8-10 week old mice were immunized by s.c. injections, along the back and at the base of the tail, of TAChR (a total of 50 μg in 100 μl of PBS for each immunization) emulsified in an equal volume of CFA for the first injection, and IFA for the following two boosts. The mice were injected for a total of three times at 3-4 week intervals. At the end of the observation period, the mice received a third boost, and were sacrificed 5-7 days later. Control mice were injected with clean PBS in the appropriate adjuvant.
(§3) Evaluation of the symptoms of EMG The EMG symptoms were quantified using a forced exercise test sensitized by i.p. injection of a minute amount of pancuronium bromide (0.03 mg/kg) just before the test (Karachunski et al., 1995). The mouse hangs from a grid suspended above a soft padding, and the time it takes the mouse to fall three times (‘holding time’) was measured. The test is parametric, and gives a quantitative assessment of the mouse weakness. The myasthenic nature of the weakness was verified by injecting i.p. edrophonium chloride (Reversol, Organon, West Orange, N.J.), which is a cholinesterase inhibitor. […] The mice were tested without knowledge of their treatment.
The holding time of normal mice was 10.4±2.1 minutes (n=99). Mice with holding times of 8 minutes or longer were considered normal. Mice with holding times less than 6.2 minutes (the holding time of normal mice minus two SD) were considered to have fully developed EMG. Holding times of 6.2-8 minutes were considered to potentially indicate initial EMG. Normal or sham-immunized mice had occasionally holding times of 6.2-8 minutes, but never less than 6.2 minutes. Paralyzed mice and mice that died of respiratory paralysis are indicated as having holding time of 0 minutes.

[4] = test system: serum anti-TAChR Ab; assay: Anti-TAChR IgG and IgG1 radioimmunoprecipitation assay (Example IV); format: in vivo, mouse; conditions: s.c. tolerization, prevention protocol
Protocol: Anti-TAChR Ab assay. Sera was obtained from each mouse after each clinical testing and at the end of the observation period (12 weeks after beginning of the TAChR immunization). The serum concentration of anti-TAChR IgG and IgGI was determined by radioimmunoprecipitation assay, using TAChR solubilized in Triton X-100 and labeled by the binding of ^125I-α-BTX (Bellone et al., 1991a). As a secondary Ab, either rabbit anti-mouse IgG produced, or goat anti-mouse IgG1 (Sigma, St. Louis, Mo.), was used. The anti-TAChR Ab concentration is expressed as μM precipitated ^125I-α-BTX binding sites.
Two types of experiments were carried out. In one of them the total anti-TAChR Ab in the sera of individual mice, obtained 8, 10 and 12 weeks after the first TAChR immunization, was determined. In the other, the anti-TAChR IgG1 concentration was determined, as well as the total anti-TAChR IgG concentration, in sera obtained at the end of the observation period. For this second assay pooled sera from five mice that had received identical treatments was used.

[5] = test system: established EMG in B6 mice; assay: Subcutaneous treatment, post-priming protocol, established EMG (Example IV); format: in vivo, mouse
Protocol: as §1, §2
as §3, with “treatment. […]” for “treatment.”

CC[n+]1c(-c2ccccc2)c2cc(N)ccc2c2ccc(N)cc21 [ethidium bromide]
staining of bronchi [1]: increasingly weaker | staining of lung parenchyma [1]: only weak focal signals | staining of nostrils, larynx and trachea [1]: brightly stained

peptide α304-322: synthetic sequence of the human AChR α subunit, universal epitope (STHVMPNWVRKVFIDTIPN; UniProt P02708 324-342, looked up, fragment)
recognition by CD4+ cells of MG patients [2]: recognized by the majority of the patients

solubilized TAChR: Torpedo californica acetylcholine receptor purified from electric organ, solubilized in Triton X-100
protection from EMG [3]: protected from EMG to levels comparable | mice with clear EMG weakness ([3]; at 12 weeks): one of 12 | mice with holding times of 6.2-8 minutes ([3]; at 12 weeks): two mice | effect on anti-TAChR Ab synthesis [4]: delayed but did not ultimately affect | mice with holding times of 6.2 or less ([5]; at 44 weeks, s.c. post-priming protocol): 80% | EMG frequency after the s.c. treatment had started ([5]; s.c. without adjuvant, post-priming protocol): very high EMG frequency

α101-137: human AChR α subunit sequence region covered by peptides α101-120 and α118-137 (AIVKFTKVLLQYTGHITWTPPAIFKSYCEIIVTHFPF; UniProt P02708 121-157, looked up, fragment)
recognition by CD4+ cells of MG patients [2]: recognized by the majority of the patients

α403-437: carboxyl-terminal human AChR α subunit sequence covered by peptides α403-421 and α419-437 (AMVMDHILLGVFMLVCIIGTLAVFAGRLIELNQQG; UniProt P02708 423-457, looked up, fragment)
recognition by CD4+ cells of MG patients [2]: recognized by the majority of the patients
